Format in all cases: cell-based, human
Data set [1] concerns MEG-01 cells. Put plainly: Apoptosis assay by flow cytometry with AnnexinV-FITC and PI. The settings on record: for early apoptotic cells (FL1H+, FL3H−) versus control untreated (DMSO): 72 hours; for early apoptotic cells (FL1H+, FL3H−) versus control untreated (DMSO) / total apoptotic cells (late plus early) versus control untreated (DMSO): p<0.01; for cytotoxicity: MEG-01 cells. As to the method: For induction of typical apoptosis, cells were cultured with 1 μM Staurosporine (Sigma-Aldrich, cat. # S6942) for 6 hours as recommended in the protocol from the provider. Next the Staurosporine treated cells were stained as follows: (1) with PI, (2) with AnnexinV-FITC and (3) both PI and AnnexinV-FITC in order to have the brightest controls for compensation and proper collection of the flow cytometry data. Cell necrosis was induced by heat shock (65° C. for 30 minutes). Controls for necrosis were stained in the same way as for the Staurosporine treated cells.
In order to establish the effect of the treatments on the apoptosis levels, the non-treated cells (as well as the mock control DMSO) were considered as a control, stained with PI and AnnexinV-FITC and the unstained cells, grown for the same length of treatment. The unstained control signal was subtracted by gating from the stained control and the rest of stained samples, to get only the positive stained cells signal. The stained control, both PI and AnnexinV-FITC labeled, was then used as the reference in establishing the level of apoptosis induced by the treatments.
Samples contained three cell populations of different size and shape and data was collected on logarithmic modes. AnnexinV-FITC corresponds to FL1H channel, and PI to FL3H or FL2H channels. When needed, compensation was done to remove any spillover between the channels. In addition, proper gating was done to characterize each cell population. The population of cells high on FSC and SSC, identified as large, non-granulated particles corresponds to MEG-01 cells. This population is involved in the proplatelets formation and terminal phase of megakaryocytopoiesis and in thrombocytopoiesis. MEG-01 gate is the one of interest in estimating the apoptosis level induced by the treatments.
The Apoptosis AnnexinV-FITC and PI kit from BD Biosciences, CA, USA was used. 105-106 cells were stained with 50 μg/ml propidium iodide (PI) and with 0.5 μg/ml FITC-labeled Annexin V using the staining protocol provided by the supplier. Briefly, cells were counted using a Neubauer hemacytometer, then washed and resuspended in the appropriate amount of AnnexinV-binding buffer 1× (provided in the kit), in order to have the most […] in 100 μl. Then it was used further, as the total reaction volume 100 μl (containing 10^6 cells) to which PI and AnnexinV-FITC was added. Incubation was done for 15 minutes in dark at room temperature. Samples were then analyzed immediately by flow cytometry.
With reference to FIGS. 5-9, apoptosis flow cytometry (AnnexinV-FITC corresponding to FL1H and PI corresponding to FL3H) is depicted. Analyzed and graphed values correspond to frequencies of the parent obtained with FlowJo software version 6.2, after quadrant gating. […] In FIG. 5, apoptotic cells, percentages (FL1H+, FL3H−), after 24 hours of treatment with CK2α inhibitors are depicted. Left bar represents Control untreated (DMSO), middle bar represents DMAT 20 μM treatment and right bar represents TBB 50 μM treatment. The MEG-01 cells were treated for a period of 24 hours. […] Left column represents the Control untreated (DMSO), middle bar represents DMAT 20 μM treatment and right bar represents TBB 50 μM treatment. The MEG-01 cells were treated for a period of 72 hours. […] Left bar represents the Control untreated (DMSO), middle bar represents DMAT 20 μM treatment and right bar represents TBB 50 μM treatment. The MEG-01 cells were treated for a period of 96 hours. […] FIG. 8 illustrates control untreated (DMSO) stained for both Annexin V-FITC and PI, after 24 hours.

Data set [2] deals with αIIbβ3 integrin expression on MEG-01 cells. Put plainly: RPE-CD41a flow cytometric immunophenotyping (maturation). An excerpt:
CD41a is the antigen for αIIbβ3 complex and it is found on platelets and platelet precursors, including MEG-1 cell line (Ogura et al., 1985; Zunino et al., 2001). It acts as a receptor for fibrinogen, von Willebrand factor, fibronectin, and vitronectin, and it mediates platelet adhesion and aggregation. αIIbβ3 complex is a marker of differentiation for megakaryocytes (as an increase in the fluorescence of stained cells corresponds to more αIIbβ3 receptor expression and differentiation towards platelets production) and it is simply a marker for the platelets. CD41a is conjugated with R-Phytocoerthrin (RPE), in order to be used in flow cytometry experiments. The staining protocol provided by BD Biosciences was followed. Briefly, cells were washed and resuspended in 1×PBS with 0.1% FBS, 0.01% NaN3, and 0.22 μm filtered buffer. Cells were counted and adjusted to be 10^6 cells/ml and 20 μl of RPE-CD41a was used for 180 μl cell suspension.
RPE conjugated stained cells were collected on FL2H channel and gating on populations was done on FSC and SSC logarithmic modes. […]
Regarding FIGS. 16-20, maturation (differentiation) of MEG-01 cells is described. […] Control untreated unstained—plot A, control untreated stained—plot B, 10 μM DMAT—plot C, 25 μM TBB—plot D, 1 nM PMA treatments—plot E. FIG. 18 represents total percentage relative fluorescence for RPE-CD41a immunophenotyping. […]

The subject of data set [3] is MEG-01 cells. The data set can be described thus: DNA content assay with PI and RNAase A. The settings on record: 10 μM, 4 days.

In the case of `CN(C)c1nc2c(Br)c(Br)c(Br)c(Br)c2[nH]1` [DMAT, 2-dimethylamino-4,5,6,7-tetrabromo-1H-benzimidazole], in data set [1] (10 μM, 24 hours), the apoptosis result is recorded as “induced apoptosis”. The “apoptosis versus non-treated control” value in data set [1] (20 μM, 24 hours) is recorded as “extremely significant apoptosis”. For the same compound, the “early apoptotic cells (FL1H+, FL3H−) versus control untreated (DMSO)” value in data set [1] (20 μM) is “significant apoptosis after 72 hours”. In addition, the “total apoptotic cells (late plus early) versus control untreated (DMSO)” value in data set [1] (20 μM, 96 hours) was “significant apoptosis after 96 hours”. Besides, in data set [1] (DMAT 20 μM versus TBB 50 μM, 96 hours), the “apoptosis compared with TBB” value is “induces more apoptosis at a lower concentration than the less specific inhibitor (TBB)”. Besides, the cytotoxicity entry in data set [1] was “without being cytotoxic”. Further, the “maturation level (RPE-CD41a, αIIbβ3 expression)” value in data set [2] (10 μM) was “very significant maturation levels versus control untreated”; in data set [2] (20 μM, compared with 10 μM), “slight increase in the maturation level”. The “ploidy (DNA content)” value in data set [3] is reported as “higher than 2N”.

`Brc1c(Br)c(Br)c2[nH]nnc2c1Br` [TBB, 4,5,6,7-tetrabromobenzotriazole]: the “apoptosis versus non-treated control” value in data set [1] (50 μM, 24 hours, p<0.05) was “significant apoptosis”. Further, in data set [1] (50 μM), the “early apoptotic cells (FL1H+, FL3H−) versus control untreated (DMSO)” value is “significant apoptosis after 72 hours”. Moreover, in data set [1] (50 μM, 96 hours), the “total apoptotic cells (late plus early) versus control untreated (DMSO)” value is reported as “significant apoptosis after 96 hours”. Moreover, in data set [1], the cytotoxicity result is recorded as “without being cytotoxic”.

The record behind these values is patent US20100048657A1, “CONTROL OF MALIGNANT CELLS PROLIFERATION THROUGH THE INHIBITION OF CASEIN KINASE 2” (CLEVELAND STATE UNIVERSITY, priority 2006, published 2010).
